Experimental data reported in ChEMBL document CHEMBL1153983, “Anti-HBV agents. Part 2: synthesis and in vitro anti-hepatitis B virus activities of alisol A derivatives” (Bioorg Med Chem Lett, 2009).

Columns and labels:
Hepatitis B virus [1] = experiment: Antiviral activity against HBV assessed as inhibition of viral surface antigen secretion; assay type: functional, organism-based
Hepatitis B virus [2] = experiment: Antiviral activity against HBV assessed as inhibition of viral early antigen secretion; assay type: functional, organism-based
[3] = Cytotoxicity against human HepG2(2.2.15) cells; assay type: cell-based

SMILES | IC50 (Hepatitis B virus [1]) [µM] | IC50 (Hepatitis B virus [2]) [µM] | CC50 [3] [µM]
C/C=C/C(=O)O[C@@H](C[C@@H](C)C1=C2C[C@H](OC(=O)/C=C/C)[C@H]3[C@@]4(C)CCC(=O)C(C)(C)[C@@H]4CC[C@]3(C)[C@@]2(C)CC1)[C@@H](OC(=O)/C=C/C)C(C)(C)O | > 850 | > 850 | > 850
C/C=C/C=C/C(=O)O[C@@H](C[C@@H](C)C1=C2C[C@H](OC(=O)/C=C/C=C/C)[C@H]3[C@@]4(C)CCC(=O)C(C)(C)[C@@H]4CC[C@]3(C)[C@@]2(C)CC1)[C@@H](OC(=O)/C=C/C=C/C)C(C)(C)O | > 900 | > 900 | > 900
CC(C)CC(=O)O[C@@H](C[C@@H](C)C1=C2C[C@H](OC(=O)CC(C)C)[C@H]3[C@@]4(C)CCC(=O)C(C)(C)[C@@H]4CC[C@]3(C)[C@@]2(C)CC1)[C@@H](OC(=O)CC(C)C)C(C)(C)O | > 1200 | > 1200 | > 1200
CCCCCCCC(=O)O[C@@H](C[C@@H](C)C1=C2C[C@H](OC(=O)CCCCCCC)[C@H]3[C@@]4(C)CCC(=O)C(C)(C)[C@@H]4CC[C@]3(C)[C@@]2(C)CC1)[C@@H](OC(=O)CCCCCCC)C(C)(C)O | > 600 | > 600 | > 600
C[C@H](C[C@H](OC(=O)c1ccc(Cl)cc1)[C@@H](OC(=O)c1ccc(Cl)cc1)C(C)(C)O)C1=C2C[C@H](OC(=O)c3ccc(Cl)cc3)[C@H]3[C@@]4(C)CCC(=O)C(C)(C)[C@@H]4CC[C@]3(C)[C@@]2(C)CC1 | > 900 | > 900 | > 900
CC(C)CCC(=O)O[C@@H](C[C@@H](C)C1=C2C[C@H](OC(=O)CCC(C)C)[C@H]3[C@@]4(C)CCC(=O)C(C)(C)[C@@H]4CC[C@]3(C)[C@@]2(C)CC1)[C@@H](OC(=O)CCC(C)C)C(C)(C)O | > 900 | > 900 | > 900
CCCCC(=O)O[C@@H](C[C@@H](C)C1=C2C[C@H](OC(=O)CCCC)[C@H]3[C@@]4(C)CCC(=O)C(C)(C)[C@@H]4CC[C@]3(C)[C@@]2(C)CC1)[C@@H](OC(=O)CCCC)C(C)(C)O | > 1300 | > 1300 | > 1300
C[C@H](C[C@H](OC(=O)CC(C)(C)C)[C@@H](OC(=O)CC(C)(C)C)C(C)(C)O)C1=C2C[C@H](OC(=O)CC(C)(C)C)[C@H]3[C@@]4(C)CCC(=O)C(C)(C)[C@@H]4CC[C@]3(C)[C@@]2(C)CC1 | > 1200 | > 1200 | > 1200
CCC(CC)C(=O)O[C@@H](C[C@@H](C)C1=C2C[C@H](OC(=O)C(CC)CC)[C@H]3[C@@]4(C)CCC(=O)C(C)(C)[C@@H]4CC[C@]3(C)[C@@]2(C)CC1)[C@@H](OC(=O)C(CC)CC)C(C)(C)O | > 1100 | > 1100 | > 1100
C[C@H](C[C@H](OC(=O)C1CCCCC1)[C@@H](OC(=O)C1CCCCC1)C(C)(C)O)C1=C2C[C@H](OC(=O)C3CCCCC3)[C@H]3[C@@]4(C)CCC(=O)C(C)(C)[C@@H]4CC[C@]3(C)[C@@]2(C)CC1 | > 800 | > 800 | > 800
C[C@H](C[C@H](OC(=O)CCC1CCCCC1)[C@@H](OC(=O)CCC1CCCCC1)C(C)(C)O)C1=C2C[C@H](OC(=O)CCC3CCCCC3)[C@H]3[C@@]4(C)CCC(=O)C(C)(C)[C@@H]4CC[C@]3(C)[C@@]2(C)CC1 | > 810 | > 810 | > 810
C[C@H](C[C@H](OC(=O)C1CC1)[C@@H](OC(=O)C1CC1)C(C)(C)O)C1=C2C[C@H](OC(=O)C3CC3)[C@H]3[C@@]4(C)CCC(=O)C(C)(C)[C@@H]4CC[C@]3(C)[C@@]2(C)CC1 | > 1000 | > 1000 | > 1000
C[C@H](C[C@H](OC(=O)C1CCCC1)[C@@H](OC(=O)C1CCCC1)C(C)(C)O)C1=C2C[C@H](OC(=O)C3CCCC3)[C@H]3[C@@]4(C)CCC(=O)C(C)(C)[C@@H]4CC[C@]3(C)[C@@]2(C)CC1 | > 1100 | > 1100 | > 1100
